Active and inactive are the calls of the source. The calls are words filed in the database; no cut-off is given here.
Tests used:
Hepatocyte [1] = assay: Anti-MASH activity in fatty acid induced human iPSC derived Hepatocyte assessed as reduction in lipid level in hepatocyte at 10 uM measured after 48 hrs; format: functional, cell-based
Hepatocyte [2] = assay: Anti-MASH activity in fatty acid induced human iPSC derived Hepatocyte assessed as reduction in lipid droplet size in hepatocyte at 10 uM measured after 48 hrs; format: functional, cell-based
[3] = Mutagenicity in Salmonella typhimurium TA100 at 5 to 100 mM incubated for 96 hrs in presence of rat liver s9 microsomes by Ames test; format: toxicity, Microsome; conditions: salmonella enterica subsp. enterica serovar typhimurium, 100000 µM, dose 5-100 mM
[4] = Mutagenicity in Salmonella typhimurium TA98 at 5 to 100 mM incubated for 96 hrs in absence of rat liver s9 microsomes by Ames test; format: toxicity; conditions: salmonella enterica subsp. enterica serovar typhimurium, 100000 µM, dose 5-100 mM
in vitro = conditions: human, Caco-2
Description: Apparent permeability of the compound in human Caco-2 cells across apical to basolateral side

[5] = Mutagenicity in Salmonella typhimurium TA1535 at 5 to 100 mM incubated for 96 hrs in presence of rat liver s9 microsomes by Ames test; format: toxicity, Microsome; conditions: salmonella enterica subsp. enterica serovar typhimurium, 100000 µM, dose 5-100 mM
[6] = Mutagenicity in Salmonella typhimurium TA1537 at 5 to 100 mM incubated for 96 hrs in absence of rat liver s9 microsomes by Ames test; format: toxicity; conditions: salmonella enterica subsp. enterica serovar typhimurium, 100000 µM, dose 5-100 mM
[7] = Mutagenicity in Salmonella typhimurium TA100 at 5 to 100 mM incubated for 96 hrs in absence of rat liver s9 microsomes by Ames test; format: toxicity; conditions: salmonella enterica subsp. enterica serovar typhimurium, 100000 µM, dose 5-100 mM
[8] = Mutagenicity in Salmonella typhimurium TA98 at 5 to 100 mM incubated for 96 hrs in presence of rat liver s9 microsomes by Ames test; format: toxicity, Microsome; conditions: salmonella enterica subsp. enterica serovar typhimurium, 100000 µM, dose 5-100 mM
[9] = Mutagenicity in Salmonella typhimurium TA1535 at 5 to 100 mM incubated for 96 hrs in absence of rat liver s9 microsomes by Ames test; format: toxicity; conditions: salmonella enterica subsp. enterica serovar typhimurium, 100000 µM, dose 5-100 mM
[10] = Mutagenicity in Salmonella typhimurium TA1537 at 5 to 100 mM incubated for 96 hrs in presence of rat liver s9 microsomes by Ames test; format: toxicity, Microsome; conditions: salmonella enterica subsp. enterica serovar typhimurium, 100000 µM, dose 5-100 mM
[11] = Metabolic stability in human liver microsomes assessed as clearance; format: ADME, Microsome

Row | Compound | Activity (Hepatocyte [1]) | Activity (Hepatocyte [2]) | Activity [3] | Activity [4] | Papp A→B (in vitro) | Activity [5] | Activity [6] | Activity [7] | Activity [8] | Activity [9] | Activity [10] | CLH [11]
1 | CC(C)c1cc(Oc2c(Cl)cc(-n3nc(C#N)c(=O)[nH]c3=O)cc2Cl)n[nH]c1=O | Active | Active | – | – | – | – | – | – | – | – | – | –
2 | CSc1ccccc1[C@H]1CCCN1C(=O)CNC(=O)N(Cc1ccc(N)c(Cl)c1)Cc1nnn(C)n1 | Active | Active | Non-toxic | Non-toxic | 5 ×10⁻⁶ cm/s | Non-toxic | Non-toxic | Non-toxic | Non-toxic | Non-toxic | Non-toxic | –
3 | CSc1ccccc1[C@H]1CCCN1C(=O)CNC(=O)N(Cc1cnc(N)nc1)Cc1ncc(C)s1 | – | – | Non-toxic | Non-toxic | 0.8 ×10⁻⁶ cm/s | Non-toxic | Non-toxic | Non-toxic | Non-toxic | Non-toxic | Non-toxic | 60 µL/min/mg
4 | Cn1nnc(CN(Cc2ccc(N)c(Cl)c2)C(=O)NCC(=O)N2CCC[C@@H]2c2ccccc2Br)n1 | – | – | Non-toxic | Non-toxic | 6.6 ×10⁻⁶ cm/s | Non-toxic | Non-toxic | Non-toxic | Non-toxic | Non-toxic | Non-toxic | –

Source: ChEMBL document CHEMBL6103649, “Optimization of Cyclophilin B-Targeted Tri-vector Inhibitors for Novel MASH Treatments” (J Med Chem, 2025)
